From patent publication US7763615B2, “Ecteinascidin analogs for use as antitumour agents” (priority 2001, dated 2010)
Like-named read-outs stand apart in the source and are kept apart here.

Legend:
[1] = tested on: L8, normal rat skeletal muscle cells; conditions: 24 h
[2] = tested on: FDC-P1, normal mouse myelogeous stem cells; conditions: 24 h
[3] = tested on: AML-12, normal mouse liver cells; conditions: 24 h
Protocol: In order to assess the cytotoxicity of the drugs to normal cells, we used 96 well plates plated at a density of 5000 cells per well (except for the FDC-P1 which were plated at 12,000 cells per well) with normal cell lines (ATCC, Table 1) maintained as per the directions of the ATCC: AML-12, normal mouse liver cells; NRK-52E, normal rat kidney cells; L8, normal rat skeletal muscle cells; FDC-P1, normal mouse myelogeous stem cells; and H9c2 (2-1), normal rat cardiac muscle cells. The cells in each plate were permitted to settle overnight before adding the test drug.
To each well (100 μl medium) 10 μl of drug in media was added at varying concentrations (1×10-10-0.01 mg/ml final concentration) and further incubated overnight at 37° C. with 5% CO2. After 24 h the following assays were performed. All experiments were repeated at least 3 times and were assayed in duplicate.
MTS assay (CellTiter 96 aqueous) was performed according to the manufacturer's (Promega) directions (for all cell types). Cell viability (mitochondrial activity) is determined via enzymatic conversion of the formazan substrate.

(HEPG2) = conditions: human, 24 h, 30 μM
[4] = tested on: NRK-52E, normal rat kidney cells; conditions: 24 h
LNCAP = experiment: cells; type: cell-based; conditions: LNCAP; for CC50: read-out: LC50
Outline: (§1)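 Human tumour cells seeded at 5×10^3 per well in RPMI 1640 10% FBS, attached 18 h, then exposed 48 h to samples from 10 to 10^−8 μg/ml in DMSO/EtOH/PBS. Growth measured by SRB staining after TCA fixation, OD 490 nm, triplicate wells; GI, TGI and LC derived.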

IGROV-ET = experiment: cells; type: cell-based; conditions: IGROV-ET; for CC50: read-out: LC50
Outline: as §1

HT29 = experiment: cells; type: cell-based; conditions: for CC50: read-out: LC50
Outline: as §1

DU145 = experiment: cells; type: cell-based; conditions: for CC50: read-out: LC50
Outline: as §1

SK-BR3 = experiment: cells; type: cell-based; conditions: for CC50: read-out: LC50
Outline: as §1

MEL-28 = experiment: cells; type: cell-based; conditions: for CC50: read-out: LC50
Outline: as §1

A549 = experiment: cells; type: cell-based; conditions: for GI50: read-out: GI50; for CC50: read-out: LC50
Outline: as §1

IGROV = experiment: cells; type: cell-based
Outline: as §1

LOVO-DOX = experiment: cells; type: cell-based; conditions: LOVO-DOX; for CC50: read-out: LC50
Outline: as §1

K562 = experiment: cells; type: cell-based; conditions: for CC50: read-out: LC50
Outline: as §1

LOVO = experiment: cells; type: cell-based; conditions: LOVO; for CC50: read-out: LC50
Outline: as §1

PANC-1 = experiment: cells; type: cell-based; conditions: for CC50: read-out: LC50
Outline: as §1

[5] = tested on: H9c2 (2-1), normal rat cardiac muscle cells; conditions: 24 h
CYP2D6 [6] = molecular target: T1, CYP2D6 (Homo sapiens, UniProt P10635); conditions: 450 min, 10 µM
Protocol: (§2) For CYP2D6 inhibition assay, the compound are tested at 10 μM in duplicate with a 0.25% final concentration of both methanol and acetonitrile in presence of the fluorescent substrate AMMC (3-[2-N,N-diethyl-N-methylammonium)ethyl]-7-methoxy-4-methylcoumarin) at the concentration of 1.5 μM). The conversion of the AMMC in AHMC (3-[2-N,N-diethyl-N-methylammonium)ethyl]-7-hydroxy-4-methylcoumarin) is determined spectrofluorimetry after incubation with the enzyme during 450 min at 37° C.
(§3) For both assays, the fluorescent intensity measured at t=0 is subtracted from that measured after the appropriate incubation time. The ratio of signal-to-noise is calculated by comparing the fluorescence in incubations containing the test compound to the control samples containing the same solvent vehicle. The percent of control activity is calculated and reported as percent inhibition.

H-MEC-1 = experiment: Inhibition of cells growth by colorimetric assay (SRB), H-MEC-1; type: cell-based; conditions: for CC50: read-out: LC50
Outline: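 Cells plated at 5×10^3 per well; 18 h later, test samples added across 10 to 10^−8 μg/ml; incubation continued 48 h at 37° C, 5% CO2. Cells then fixed with cold TCA, stained with SRB, dye solubilised in Tris, and optical density measured at 490 nm.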

CYP3A4 = CYP3A4 (Homo sapiens, UniProt P08684); conditions: 30 min, 10 µM
Protocol: For CYP3A4 inhibition assay, the compound were tested at 10 μM in duplicate with a 0.25% final concentration of both methanol and acetonitrile in presence of the fluorescent substrate BFC (50 μM). The conversion of the BFC (7-benzyloxy-4-trifluoromethylcoumarin) in HFC (7-hydroxy-4-trifluoromethylcoumarin) was determined spectro-fluormetry after incubation with the enzyme during 30 min at 37° C.
as §3

[7] = s9, 60 min, 1 μM
[8] = 60 min
SK-OV3 = experiment: Inhibition of cells growth by colorimetric assay (SRB), SK-OV3; type: cell-based; conditions: for CC50: read-out: LC50
Outline: as §1

CYP2D6 [9] = molecular target: T1, CYP2D6; experiment: in vitro; conditions: CYP2D6 (% inhibition)
Protocol: as §2, §3

Lewis lung carcinoma = conditions: mice, U.S. Pat. No. 5,149,804; cited from earlier work
B16 melanoma = conditions: mice, U.S. Pat. No. 5,149,804; cited from earlier work
P388 lymphoma = conditions: mice, U.S. Pat. No. 5,149,804; cited from earlier work
[10] = H-MEC-1, 48 hours exposure, SRB

CYP3A4, sequence (P08684 whole entry): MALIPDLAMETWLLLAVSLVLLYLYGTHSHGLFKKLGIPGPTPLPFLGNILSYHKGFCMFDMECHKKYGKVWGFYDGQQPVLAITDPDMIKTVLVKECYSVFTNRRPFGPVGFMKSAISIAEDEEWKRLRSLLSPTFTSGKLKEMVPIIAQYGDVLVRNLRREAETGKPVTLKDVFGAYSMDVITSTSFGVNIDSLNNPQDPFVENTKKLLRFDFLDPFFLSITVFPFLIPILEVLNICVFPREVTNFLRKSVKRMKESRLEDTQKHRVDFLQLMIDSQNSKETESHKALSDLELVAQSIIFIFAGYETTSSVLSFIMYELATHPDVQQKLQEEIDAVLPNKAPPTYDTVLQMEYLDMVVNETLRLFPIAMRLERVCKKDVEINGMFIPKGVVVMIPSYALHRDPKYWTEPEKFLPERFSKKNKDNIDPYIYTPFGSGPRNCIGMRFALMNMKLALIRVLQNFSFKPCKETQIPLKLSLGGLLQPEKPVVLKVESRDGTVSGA
T1 sequence (P10635 whole entry): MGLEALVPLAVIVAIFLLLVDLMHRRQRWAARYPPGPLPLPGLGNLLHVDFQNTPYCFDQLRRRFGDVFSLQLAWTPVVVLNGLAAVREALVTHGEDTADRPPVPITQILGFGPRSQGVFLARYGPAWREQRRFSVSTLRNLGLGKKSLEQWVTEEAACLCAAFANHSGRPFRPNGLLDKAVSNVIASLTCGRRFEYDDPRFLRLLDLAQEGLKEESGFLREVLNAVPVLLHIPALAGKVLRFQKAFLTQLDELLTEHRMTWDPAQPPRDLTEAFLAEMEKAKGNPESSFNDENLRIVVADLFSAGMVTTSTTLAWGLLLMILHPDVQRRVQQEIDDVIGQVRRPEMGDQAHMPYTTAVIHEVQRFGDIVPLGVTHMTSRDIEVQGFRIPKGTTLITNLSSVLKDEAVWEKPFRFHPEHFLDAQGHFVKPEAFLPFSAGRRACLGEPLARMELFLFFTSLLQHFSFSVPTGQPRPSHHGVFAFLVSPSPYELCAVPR

COc1c(C)cc2c(c1O)[C@@H]1C3[C@@H]4SC[C@]5(NC(C)Cc6c5[nH]c5ccc(F)cc65)C(=O)COC[C@@H](c5c6c(c(C)c(OC(C)=O)c54)OCO6)N3[C@@H](O)[C@H](C2)N1C (stereo partly shown) [Compound 42]
Skeletal [1]: 3.37E−08
Myelo [2]: 6.41E−08
Liver [3]: 1.86E−07
Solubility Dulbecco's PBS pH 7.4: 10.37 μM
Cell Viability (% inhibition) ((HEPG2)): 67 % inhibition
Kidney [4]: 1.12E−09
GI50 (LNCAP; 48 hours exposure, SRB): 3.74 nM
TGI (LNCAP; 48 hours exposure, SRB): 6.61E−09 Molar
CC50 (LNCAP; 48 hours exposure, SRB): 11.7 nM
GI50 (IGROV-ET; 48 hours exposure, SRB): 43.2 nM
TGI (IGROV-ET; 48 hours exposure, SRB): 9.42E−08 Molar
CC50 (IGROV-ET; 48 hours exposure, SRB): 12700 nM
GI50 (HT29; HT29, 48 hours exposure, SRB): 34.1 nM
TGI (HT29; HT29, 48 hours exposure, SRB): 1.42E−07 Molar
CC50 (HT29; HT29, 48 hours exposure, SRB): 12700 nM
GI50 (DU145; DU145, 48 hours exposure, SRB): 3.51 nM
TGI (DU145; DU145, 48 hours exposure, SRB): 7.97E−09 Molar
CC50 (DU145; DU145, 48 hours exposure, SRB): 12.7 nM
GI50 (SK-BR3; SK-BR3, 48 hours exposure, SRB): 6.63 nM
TGI (SK-BR3; SK-BR3, 48 hours exposure, SRB): 2.44E−08 Molar
CC50 (SK-BR3; SK-BR3, 48 hours exposure, SRB): 87.3 nM
GI50 (MEL-28; MEL-28, 48 hours exposure, SRB): 0.404 nM
TGI (MEL-28; MEL-28, 48 hours exposure, SRB): 9.77E−10 Molar
CC50 (MEL-28; MEL-28, 48 hours exposure, SRB): 6.19 nM
TGI (A549; A549, 48 hours exposure, SRB): 4.09E−08 Molar
GI50 (A549; A549, 48 hours exposure, SRB): 22 nM
CC50 (A549; A549, 48 hours exposure, SRB): 75.9 nM
GI50 (IGROV; 48 hours exposure, SRB): 2.44 nM
TGI (IGROV; 48 hours exposure, SRB): 5.12E−09 Molar
CC50 (IGROV; read-out: LC50, 48 hours exposure, SRB): 10.7 nM
GI50 (LOVO-DOX; 48 hours exposure, SRB): 45.9 nM
TGI (LOVO-DOX; 48 hours exposure, SRB): 2.05E−07 Molar
CC50 (LOVO-DOX; 48 hours exposure, SRB): 12700 nM
GI50 (K562; K562, 48 hours exposure, SRB): 4.77 nM
TGI (K562; K562, 48 hours exposure, SRB): 9.15E−09 Molar
CC50 (K562; K562, 48 hours exposure, SRB): 2810 nM
GI50 (LOVO; 48 hours exposure, SRB): 13.5 nM
TGI (LOVO; 48 hours exposure, SRB): 4.37E−08 Molar
CC50 (LOVO; 48 hours exposure, SRB): 127 nM
GI50 (PANC-1; PANC-1, 48 hours exposure, SRB): 16.9 nM
TGI (PANC-1; PANC-1, 48 hours exposure, SRB): 8.25E−08 Molar
CC50 (PANC-1; PANC-1, 48 hours exposure, SRB): 12700 nM
Heart [5]: 1.42E−07
CYP2D6 (% inhibition) (CYP2D6 [6]): 19 % inhibition
GI50 (H-MEC-1; [10]): 40.4 nM
TGI (H-MEC-1; [10]): 2.47E−07 Molar
CC50 (H-MEC-1; [10]): 12700 nM
CYP3A4 (% inhibition) (CYP3A4): 78 % inhibition
Human Liver S9 Metabolic Stability (% remaining) [7]: 5 % remaining
log D n-Octanol-Dulbecco's PBS pH 7.4 [8]: >4.8
GI50 (SK-OV3; SK-OV3, 48 hours exposure, SRB): 7.37 nM
TGI (SK-OV3; SK-OV3, 48 hours exposure, SRB): 7.92E−07 Molar
CC50 (SK-OV3; SK-OV3, 48 hours exposure, SRB): 12700 nM

COc1c(C)cc2c(c1O)[C@@H]1C3[C@@H]4SC[C@]5(NC(C)Cc6c5[nH]c5ccccc65)C(=O)COC[C@@H](c5c6c(c(C)c(OC(C)=O)c54)OCO6)N3[C@@H](O)[C@H](C2)N1C (stereo partly shown) [Compound 44]
Skeletal [1]: 4.02E−08
Myelo [2]: 1.21E−07
Liver [3]: 4.33E−07
Solubility Dulbecco's PBS pH 7.4: 20.69 μM
inhibition at 450 min, 10 µM (CYP2D6 [9]): 16%
Cell Viability (% inhibition) ((HEPG2)): 73 % inhibition
Kidney [4]: 4.15E−07
GI50 (LNCAP): 4.3 nM
TGI (LNCAP): 8.84E−09
CC50 (LNCAP): 31.1 nM
GI50 (IGROV-ET): 28.5 nM
TGI (IGROV-ET): 7.06E−08
CC50 (IGROV-ET): 130 nM
GI50 (HT29; HT29): 59.8 nM
TGI (HT29; HT29): 4.59E−07
CC50 (HT29; HT29): ≥ 13000 nM
GI50 (DU145; DU145): 6.54 nM
TGI (DU145; DU145): 1.18E−08
CC50 (DU145; DU145): ≥ 13000 nM
GI50 (SK-BR3; SK-BR3): 12.7 nM
TGI (SK-BR3; SK-BR3): 4.27E−08
CC50 (SK-BR3; SK-BR3): 177 nM
GI50 (MEL-28; MEL-28): 2.63 nM
TGI (MEL-28; MEL-28): 5.22E−09
CC50 (MEL-28; MEL-28): 10.3 nM
TGI (A549; A549): 4.76E−08
GI50 (A549; A549): 27.4 nM
CC50 (A549; A549): 82.3 nM
GI50 (IGROV): 4.29 nM
TGI (IGROV): 1.22E−08
CC50 (IGROV; read-out: LC50): 93 nM
GI50 (LOVO-DOX): 91 nM
TGI (LOVO-DOX): 8.53E−07
CC50 (LOVO-DOX): ≥ 13000 nM
GI50 (K562; K562): 3.94 nM
TGI (K562; K562): 9.38E−09
CC50 (K562; K562): 107 nM
GI50 (LOVO): 27.1 nM
TGI (LOVO): 5.10E−08
CC50 (LOVO): 96.1 nM
GI50 (PANC-1; PANC-1): 56.7 nM
TGI (PANC-1; PANC-1): 1.55E−07
CC50 (PANC-1; PANC-1): ≥ 13000 nM
Heart [5]: 5.20E−06
GI50 (H-MEC-1; H-MEC-1): 75.3 nM
TGI (H-MEC-1; H-MEC-1): 1.31E−06
CC50 (H-MEC-1; H-MEC-1): ≥ 13000 nM
CYP3A4 (% inhibition) (CYP3A4): 72 % inhibition
Human Liver S9 Metabolic Stability (% remaining) [7]: 4 % remaining
log D n-Octanol-Dulbecco's PBS pH 7.4 [8]: >4.9
GI50 (SK-OV3; SK-OV3): 37.5 nM
TGI (SK-OV3; SK-OV3): 1.31E−07
CC50 (SK-OV3; SK-OV3): ≥ 13000 nM

COc1c(C)cc2c(c1O)[C@H]1N[C@@H](C2)[C@H](O)N2[C@H]1[C@@H]1SC[C@]3(NCCc4c3[nH]c3ccccc43)C(=O)OC[C@H]2c2c3c(c(C)c(OC(C)=O)c21)OCO3 [Ecteinascidin 722, ecteinascidin 722]
in vivo protection against Lewis lung carcinoma (Lewis lung carcinoma): protect mice in vivo at very low concentrations
in vivo protection against B16 melanoma (B16 melanoma): protect mice in vivo at very low concentrations
in vivo protection against P388 lymphoma (P388 lymphoma): protect mice in vivo at very low concentrations

COc1c(C)cc2c(c1O)[C@@H]1C3[C@@H]4SC[C@]5(NCCc6c5[nH]c5ccccc65)C(=O)OC[C@@H](c5c6c(c(C)c(OC(C)=O)c54)OCO6)N3[C@@H](O)[C@H](C2)N1C (stereo partly shown) [Ecteinascidin 736, ecteinascidin 736]
in vivo protection against Lewis lung carcinoma (Lewis lung carcinoma): protect mice in vivo at very low concentrations
in vivo protection against B16 melanoma (B16 melanoma): protect mice in vivo at very low concentrations
in vivo protection against P388 lymphoma (P388 lymphoma): protect mice in vivo at very low concentrations
